This experiment has as its target T1, Nav1.7 (or SCN9A) channel; HEK cells stably transfected with hSCN9A (Homo sapiens, UniProt Q15858).
T1 construct: expressed in transfected cells
Kind of experiment: Nav1.7 block, PatchXpress 7000 automated whole-cell voltage clamp, estimated IC50 (EIC50). It counts as cell-based. The note with it: estimated IC50; hSCN9A HEK cells, PatchXpress platform; Examples 283-814.

The source of these data is US8541588B2, “Sulfonamide derivatives” (Pfizer Limited, priority 2009, dated 2013).

T1 sequence (Q15858 whole entry): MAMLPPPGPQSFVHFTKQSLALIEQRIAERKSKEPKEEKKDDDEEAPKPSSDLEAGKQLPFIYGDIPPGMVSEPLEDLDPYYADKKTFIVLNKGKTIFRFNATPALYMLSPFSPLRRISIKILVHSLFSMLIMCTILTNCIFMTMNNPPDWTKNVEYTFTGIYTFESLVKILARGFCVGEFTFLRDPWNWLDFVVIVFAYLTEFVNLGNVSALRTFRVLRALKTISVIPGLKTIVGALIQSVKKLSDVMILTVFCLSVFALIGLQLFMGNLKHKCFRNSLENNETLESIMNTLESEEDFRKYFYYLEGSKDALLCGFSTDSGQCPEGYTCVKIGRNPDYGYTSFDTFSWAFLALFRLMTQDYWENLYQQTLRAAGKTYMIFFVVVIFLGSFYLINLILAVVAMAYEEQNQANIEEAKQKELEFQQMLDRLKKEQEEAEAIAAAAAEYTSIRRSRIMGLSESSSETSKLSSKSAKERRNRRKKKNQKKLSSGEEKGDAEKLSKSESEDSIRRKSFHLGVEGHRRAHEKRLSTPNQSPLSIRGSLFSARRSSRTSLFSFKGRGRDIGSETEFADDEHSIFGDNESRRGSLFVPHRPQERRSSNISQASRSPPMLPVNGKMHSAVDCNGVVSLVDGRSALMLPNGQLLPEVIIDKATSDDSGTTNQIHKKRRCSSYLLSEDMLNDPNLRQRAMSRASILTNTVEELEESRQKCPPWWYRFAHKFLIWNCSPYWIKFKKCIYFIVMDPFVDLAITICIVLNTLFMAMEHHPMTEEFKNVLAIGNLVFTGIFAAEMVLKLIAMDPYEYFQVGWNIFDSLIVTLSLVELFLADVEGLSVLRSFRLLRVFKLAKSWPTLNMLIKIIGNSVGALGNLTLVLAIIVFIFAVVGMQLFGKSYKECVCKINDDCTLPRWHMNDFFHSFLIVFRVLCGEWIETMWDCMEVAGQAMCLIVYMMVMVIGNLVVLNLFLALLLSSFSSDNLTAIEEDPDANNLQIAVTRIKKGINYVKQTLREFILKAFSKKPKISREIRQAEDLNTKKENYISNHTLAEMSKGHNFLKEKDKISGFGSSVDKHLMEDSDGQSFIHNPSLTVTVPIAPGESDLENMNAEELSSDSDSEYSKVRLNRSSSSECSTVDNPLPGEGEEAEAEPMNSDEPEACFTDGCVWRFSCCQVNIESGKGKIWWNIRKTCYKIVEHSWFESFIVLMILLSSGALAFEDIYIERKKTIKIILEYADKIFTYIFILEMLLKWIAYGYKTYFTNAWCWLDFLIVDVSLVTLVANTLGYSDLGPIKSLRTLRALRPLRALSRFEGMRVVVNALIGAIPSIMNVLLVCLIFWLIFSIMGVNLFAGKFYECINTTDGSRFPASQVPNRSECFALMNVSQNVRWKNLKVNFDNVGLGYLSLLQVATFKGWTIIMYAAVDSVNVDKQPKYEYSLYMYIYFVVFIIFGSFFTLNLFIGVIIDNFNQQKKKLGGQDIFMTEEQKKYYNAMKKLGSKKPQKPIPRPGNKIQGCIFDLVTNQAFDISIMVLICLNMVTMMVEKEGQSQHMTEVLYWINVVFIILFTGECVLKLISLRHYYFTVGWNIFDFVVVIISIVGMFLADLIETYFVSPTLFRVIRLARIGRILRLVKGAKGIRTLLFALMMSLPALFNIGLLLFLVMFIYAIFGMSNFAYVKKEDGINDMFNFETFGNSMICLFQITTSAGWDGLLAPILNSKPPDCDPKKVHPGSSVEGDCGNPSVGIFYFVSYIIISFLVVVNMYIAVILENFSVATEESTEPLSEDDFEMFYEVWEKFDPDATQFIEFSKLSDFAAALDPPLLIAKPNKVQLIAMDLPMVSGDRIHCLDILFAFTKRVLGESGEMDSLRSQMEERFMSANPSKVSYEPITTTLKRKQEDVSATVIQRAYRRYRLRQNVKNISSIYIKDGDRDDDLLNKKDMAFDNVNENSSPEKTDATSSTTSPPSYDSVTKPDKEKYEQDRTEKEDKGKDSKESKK

In the case of `Cc1coc(-c2ccc(Oc3ccc(S(=O)(=O)Nc4nccs4)cc3C#N)cc2)n1` [Example 317, 3-cyano-4-[4-(4-methyl-1,3-oxazol-2-yl)phenoxy]-N-1,3-thiazol-2-ylbenzenesulfonamide], the IC50 is 2200 nM.
Take `Cc1coc(-c2cc(Cl)ccc2Oc2ccc(S(=O)(=O)Nc3nccs3)cc2C#N)n1` [Example 318, 4-[4-chloro-2-(4-methyl-1,3-oxazol-2-yl)phenoxy]-3-cyano-N-1,3-thiazol-2-ylbenzenesulfonamide]: the IC50 was 1300 nM.
The value for `N#Cc1cc(S(=O)(=O)Nc2nccs2)ccc1Oc1cccc(-n2cccn2)c1` [Example 319, 3-cyano-4-[3-(1H-pyrazol-1-yl)phenoxy]-N-1,3-thiazol-2-ylbenzenesulfonamide] was 2500 nM.
The value for `Cn1cc(C(F)(F)F)nc1-c1ccc(Oc2ccc(S(=O)(=O)Nc3nccs3)cc2C#N)cc1` [Example 320, 3-cyano-4-{4-[1-methyl-4-(trifluoromethyl)-1H-imidazol-2-yl]phenoxy}-N-1,3-thiazol-2-ylbenzenesulfonamide] was 3300 nM; that for `N#Cc1cc(S(=O)(=O)Nc2nccs2)ccc1Oc1ccc(Cl)cc1-n1nccn1` [Example 321, 4-[4-chloro-2-(2H-1,2,3-triazol-2-yl)phenoxy]-3-cyano-N-1,3-thiazol-2-ylbenzenesulfonamide] was 770 nM.
With `N#Cc1cc(S(=O)(=O)Nc2nccs2)ccc1Oc1ccc(Cl)cc1-n1ccnn1` [Example 322, 4-[4-chloro-2-(1H-1,2,3-triazol-1-yl)phenoxy]-3-cyano-N-1,3-thiazol-2-ylbenzenesulfonamide], the IC50 is 550 nM.
Then `CCOCn1nncc1-c1cc(Cl)ccc1Oc1ccc(S(=O)(=O)Nc2nccs2)cc1C#N` [Example 323, 4-{4-chloro-2-[1-(ethoxymethyl)-1H-1,2,3-triazol-5-yl]phenoxy}-3-cyano-N-1,3-thiazol-2-ylbenzenesulfonamide], with more than 300 nM; and `CCn1nc(-c2ccc(Oc3ccc(S(=O)(=O)Nc4nccs4)cc3C#N)c(F)c2)cc1C(F)(F)F` [Example 324, 3-cyano-4-{4-[1-ethyl-5-(trifluoromethyl)-1H-pyrazol-3-yl]-2-fluorophenoxy}-N-1,3-thiazol-2-ylbenzenesulfonamide], with more than 1000 nM.
The value for `Cn1cnc(-c2cc(Cl)ccc2Oc2ccc(S(=O)(=O)Nc3nccs3)cc2C#N)n1` [Example 325, 4-[4-chloro-2-(1-methyl-1H-1,2,4-triazol-3-yl)phenoxy]-3-cyano-N-1,3-thiazol-2-ylbenzenesulfonamide] was more than 300 nM; that for `Cn1ncnc1-c1cc(Cl)ccc1Oc1ccc(S(=O)(=O)Nc2nccs2)cc1C#N` [Example 326, 4-[4-chloro-2-(1-methyl-1H-1,2,4-triazol-5-yl)phenoxy]-3-cyano-N-1,3-thiazol-2-ylbenzenesulfonamide] was 2100 nM.
Consider `CCn1nc(C(F)(F)F)cc1-c1ccc(Oc2ccc(S(=O)(=O)Nc3nccs3)cc2C#N)cc1F` [Example 327, 3-cyano-4-{4-[1-ethyl-3-(trifluoromethyl)-1H-pyrazol-5-yl]-3-fluorophenoxy}-N-1,3-thiazol-2-ylbenzenesulfonamide], for which the IC50 was 370 nM.
Consider `CCn1nc(C(F)(F)F)cc1-c1ccc(Oc2ccc(S(=O)(=O)Nc3nccs3)cc2C#N)c(F)c1` [Example 328, 3-cyano-4-{4-[1-ethyl-3-(trifluoromethyl)-1H-pyrazol-5-yl]-2-fluorophenoxy}-N-1,3-thiazol-2-ylbenzenesulfonamide], for which the IC50 was 81 nM.
Then `Cn1nc(C(F)(F)F)cc1-c1ccc(Oc2ccc(S(=O)(=O)Nc3nccs3)cc2C#N)cc1F` [Example 329, 3-cyano-4-{3-fluoro-4-[1-methyl-3-(trifluoromethyl)-1H-pyrazol-5-yl]phenoxy}-N-1,3-thiazol-2-ylbenzenesulfonamide], with 340 nM.
Then `Cn1nc(C(F)(F)F)cc1-c1ccc(Oc2ccc(S(=O)(=O)Nc3nccs3)cc2C#N)c(F)c1` [Example 330, 3-cyano-4-{2-fluoro-4-[1-methyl-3-(trifluoromethyl)-1H-pyrazol-5-yl]phenoxy}-N-1,3-thiazol-2-ylbenzenesulfonamide], with 250 nM.
`N#Cc1cc(S(=O)(=O)Nc2nccs2)ccc1Oc1cnn(Cc2ccc(Cl)cc2)c1` [Example 331, 4-{[1-(4-chlorobenzyl)-1H-pyrazol-4-yl]oxy}-3-cyano-N-1,3-thiazol-2-ylbenzenesulfonamide]: the IC50 is 2000 nM.
Then `N#Cc1cc(S(=O)(=O)Nc2nccs2)ccc1Oc1cnn(-c2ccc(Cl)cc2)c1` [Example 332, 4-{[1-(4-chlorophenyl)-1H-pyrazol-4-yl]oxy}-3-cyano-N-1,3-thiazol-2-ylbenzenesulfonamide], with more than 1000 nM; and `N#Cc1cc(S(=O)(=O)Nc2nccs2)ccc1Oc1cnn(-c2ccc(Cl)cc2Cl)c1` [Example 333, 3-cyano-4-{[1-(2,4-dichlorophenyl)-1H-pyrazol-4-yl]oxy}-N-1,3-thiazol-2-ylbenzenesulfonamide], with more than 1000 nM; and `N#Cc1cc(S(=O)(=O)Nc2nccs2)ccc1Oc1cnn(-c2cccc(C(F)(F)F)c2)c1` [Example 334, 3-cyano-N-1,3-thiazol-2-yl-4-({1-[3-(trifluoromethyl)phenyl]-1H-pyrazol-4-yl}oxy)benzenesulfonamide], with 3400 nM.
The value for `Cn1nc(C(F)(F)F)cc1-c1ccc(Oc2ccc(S(=O)(=O)Nc3nccs3)cc2C#N)c(Cl)c1` [Example 335, 4-{2-chloro-4-[1-methyl-3-(trifluoromethyl)-1H-pyrazol-5-yl]phenoxy}-3-cyano-N-1,3-thiazol-2-ylbenzenesulfonamide] was 32 nM.
Then `N#Cc1cc(S(=O)(=O)Nc2nccs2)ccc1Oc1ccc(Cl)c(Cn2cncn2)c1` [Example 336, 4-[4-chloro-3-(1H-1,2,4-triazol-1-ylmethyl)phenoxy]-3-cyano-N-1,3-thiazol-2-ylbenzenesulfonamide], with 2200 nM; and `CCn1nc(C(F)(F)F)cc1-c1ccc(Oc2ccc(S(=O)(=O)Nc3ccon3)cc2C#N)cc1` [Example 337, 3-cyano-4-{4-[1-ethyl-3-(trifluoromethyl)-1H-pyrazol-5-yl]phenoxy}-N-isoxazol-3-ylbenzenesulfonamide], with 2500 nM.
In the case of `CCn1nc(C(F)(F)F)cc1-c1ccc(Oc2ccc(S(=O)(=O)Nc3ncc(F)cn3)cc2C#N)cc1` [Example 338, 3-cyano-4-{4-[1-ethyl-3-(trifluoromethyl)-1H-pyrazol-5-yl]phenoxy}-N-(5-fluoropyrimidin-2-yl)benzenesulfonamide], the IC50 is 1800 nM.
Then `CCn1nc(C(F)(F)F)cc1-c1ccc(Oc2ccc(S(=O)(=O)Nc3ncccc3Cl)cc2C#N)cc1` [Example 339, N-(3-chloropyridin-2-yl)-3-cyano-4-{4-[1-ethyl-3-(trifluoromethyl)-1H-pyrazol-5-yl]phenoxy}benzenesulfonamide], with 15000 nM.
The value for `CCn1nc(C(F)(F)F)cc1-c1ccc(Oc2ccc(S(=O)(=O)Nc3ccc(C(F)(F)F)cn3)cc2C#N)cc1` [Example 340, 3-cyano-4-{4-[1-ethyl-3-(trifluoromethyl)-1H-pyrazol-5-yl]phenoxy}-N-[5-(trifluoromethyl)pyridin-2-yl]benzenesulfonamide] was 34000 nM; that for `CCn1nc(C(F)(F)F)cc1-c1ccc(Oc2ccc(S(=O)(=O)Nc3cnsn3)cc2C#N)cc1` [Example 341, 3-cyano-4-{4-[1-ethyl-3-(trifluoromethyl)-1H-pyrazol-5-yl]phenoxy}-N-1,2,5-thiadiazol-3-ylbenzenesulfonamide] was 3600 nM.
The value for `CCn1nc(C(F)(F)F)cc1-c1ccc(Oc2ccc(S(=O)(=O)Nc3cc(C#N)ccn3)cc2C#N)cc1` [Example 342, 3-cyano-N-(4-cyanopyridin-2-yl)-4-{4-[1-ethyl-3-(trifluoromethyl)-1H-pyrazol-5-yl]phenoxy}benzenesulfonamide] was 18000 nM.
Regarding `CCn1nc(C(F)(F)F)cc1-c1ccc(Oc2ccc(S(=O)(=O)Nc3ccc(C#N)cn3)cc2C#N)cc1` [Example 343, 3-cyano-N-(5-cyanopyridin-2-yl)-4-{4-[1-ethyl-3-(trifluoromethyl)-1H-pyrazol-5-yl]phenoxy}benzenesulfonamide], the IC50 was more than 10000 nM.
Then `Cn1nccc1-c1cc(F)ccc1Oc1ccc(S(=O)(=O)Nc2ncc(F)s2)cc1F` [Example 347, 3-fluoro-4-[4-fluoro-2-(1-methyl-1H-pyrazol-5-yl)phenoxy]-N-(5-fluoro-1,3-thiazol-2-yl)benzenesulfonamide], with 300 nM; and `Cn1ncnc1-c1cc(Cl)ccc1Oc1ccc(S(=O)(=O)Nc2ncc(F)s2)cc1F` [Example 349, 4-[4-chloro-2-(1-methyl-1H-1,2,4-triazol-5-yl)phenoxy]-3-fluoro-N-(5-fluoro-1,3-thiazol-2-yl)benzenesulfonamide], with more than 1000 nM; and `CCc1ccc(Oc2ccc(S(=O)(=O)Nc3nccs3)cc2C#N)c(-c2ccnn2C)c1` [Example 350, 3-cyano-4-[4-ethyl-2-(1-methyl-1H-pyrazol-5-yl)phenoxy]-N-1,3-thiazol-2-ylbenzenesulfonamide], with 15 nM.
`CC(C)c1ccc(Oc2ccc(S(=O)(=O)Nc3nccs3)cc2C#N)c(-c2ccnn2C)c1` [Example 351, 3-cyano-4-[4-isopropyl-2-(1-methyl-1H-pyrazol-5-yl)phenoxy]-N-1,3-thiazol-2-ylbenzenesulfonamide]: the IC50 is 18 nM.
On to `CC(C)c1cc(-n2ccc(C(F)(F)F)n2)ccc1Oc1ccc(S(=O)(=O)Nc2nccs2)cc1C#N` [Example 352, 3-cyano-4-{2-isopropyl-4-[3-(trifluoromethyl)-1H-pyrazol-1-yl]phenoxy}-N-1,3-thiazol-2-ylbenzenesulfonamide], for which the IC50 was 190 nM.
Then `CC(C)c1cc(-n2cc(Cl)cn2)ccc1Oc1ccc(S(=O)(=O)Nc2nccs2)cc1C#N` [Example 353, 4-[4-(4-chloro-1H-pyrazol-1-yl)-2-isopropylphenoxy]-3-cyano-N-1,3-thiazol-2-ylbenzenesulfonamide], with 220 nM.
